Laboratory results reported in PMC8815882, “Screening the pandemic response box identified benzimidazole carbamates, Olorofim and ravuconazole as promising drug candidates for the treatment of eumycetoma” (PLoS Neglected Tropical Diseases, 2022).
pIC50: −log10 of the molar value. Where two headings read alike, the source gives them in different places.

Columns and labels:
[1] = test system: M. mycetomatis genome strain MM55; assay: CLSI M38-A2 based in vitro susceptibility screening (XTT or resazurin), growth at fixed concentration; type: cell-based, Madurella mycetomatis; conditions: Madurella mycetomatis
M. mycetomatis MM55 = assay: IC50 determination, 2-fold dilution series 16 to 0.03125 μM; type: cell-based, Madurella mycetomatis
[2] = 25 uM, replicate A, read-out: Percentage survival at 25um, 25 um A
[3] = mean of three replicates, read-out: Percentage survival at 100um, 100 uM mean
[4] = replicate 1, read-out: Percentage survival at 100um, 100 uM A (first replicate column)
[5] = replicate 2, read-out: Percentage survival at 100um, 100 uM A (second replicate column)
[6] = replicate 3, read-out: Percentage survival at 100um, 100 uM A (third replicate column)
[7] = 25 uM, mean of three replicates, read-out: Percentage survival at 25um, 25 uM mean
[8] = 25 uM, replicate B, read-out: Percentage survival at 25um, 25 uM B
[9] = 25 uM, replicate C, read-out: Percentage survival at 25um, 25 uM C
[10] = Madurella mycetomatis, MM55, mean of three replicates; read-out: IC50 mean
[11] = Madurella mycetomatis, MM55; replicate 1; read-out: IC50 1 um
[12] = Madurella mycetomatis, MM55; replicate 1; read-out: IC90 1 um
[13] = Madurella mycetomatis, MM55; replicate 2; read-out: IC50 2 um
[14] = Madurella mycetomatis, MM55; replicate 2; read-out: IC90 2 um
[15] = Madurella mycetomatis, MM55; replicate 3; read-out: IC50 3 um
[16] = Madurella mycetomatis, MM55; replicate 3; read-out: IC90 3 um
[17] = Madurella mycetomatis, MM55, mean of three replicates; read-out: IC90 mean
[18] = 25 uM, mean of three, M. mycetomatis MM55, read-out: Percentage survival at 25um, 25 uM mean
[19] = 25 uM, replicate A, M. mycetomatis MM55, read-out: Percentage survival at 25um, 25 um A
[20] = 25 uM, replicate B, M. mycetomatis MM55, read-out: Percentage survival at 25um, 25 uM B
[21] = 25 uM, replicate C, M. mycetomatis MM55, read-out: Percentage survival at 25um, 25 uM C
[22] = mean of three, M. mycetomatis MM55, read-out: Percentage survival at 100um, 100 uM mean
[23] = replicate 1, M. mycetomatis MM55, read-out: Percentage survival at 100um, 100 uM A (first replicate column)
[24] = replicate 2, M. mycetomatis MM55, read-out: Percentage survival at 100um, 100 uM A (second replicate column)
[25] = replicate 3, M. mycetomatis MM55, read-out: Percentage survival at 100um, 100 uM A (third replicate column)
[26] = Madurella mycetomatis, MM55, mean of replicates; read-out: IC50 mean
[27] = Madurella mycetomatis, MM55, mean of replicates; read-out: IC90 mean

pIC50 (M. mycetomatis MM55; [10]) | pIC50 (M. mycetomatis MM55; [11]) | IC90 (M. mycetomatis MM55; [12]) [µM] | pIC50 (M. mycetomatis MM55; [13]) | IC90 (M. mycetomatis MM55; [14]) [µM] | pIC50 (M. mycetomatis MM55; [15]) | IC90 (M. mycetomatis MM55; [16]) [µM] | IC90 (M. mycetomatis MM55; [17]) [µM] | SMILES | activity at 25 µM [1, 2] [%] | activity at 100 µM [1, 3] [%] | activity at 100 µM [1, 4] [%] | activity at 100 µM [1, 6] [%] | Drug static or cidal (M. mycetomatis MM55) | activity at 25 µM [1, 7] [%] | activity at 25 µM [1, 8] [%] | activity at 25 µM [1, 9] [%] | Percent fungal survival at 100 µM [1, 5] [%] | activity at 25 µM [1, 18] [%] | activity at 25 µM [1, 19] [%] | activity at 25 µM [1, 20] [%] | also measured
– | – | – | – | – | – | – | – | Nc1c(C(=O)NCc2ccco2)c2nc3ccccc3nc2n1CCN1CCCCC1 [MMV099714] | 45.3 | 3.55 | -0.102 | 3.69 | Static | – | – | – | – | – | – | – | activity at 100 µM [1, 5]: 7.05%; activity at 25 µM ([1]; read-out: Percentage survival at 25um, 25 uM B): -3.06%; activity at 25 µM ([1]; read-out: Percentage survival at 25um, 25 uM C): 13%; activity at 25 µM ([1]; read-out: Percentage survival at 25um, 25 uM mean): 18.4%; pIC50 (M. mycetomatis MM55; Madurella mycetomatis, MM55, read-out: IC50 1 um): < 4.60; pIC50 (M. mycetomatis MM55; Madurella mycetomatis, MM55, read-out: IC50 2 um): < 4.60; pIC50 (M. mycetomatis MM55; Madurella mycetomatis, MM55, read-out: IC50 3 um): < 4.60; pIC50 (M. mycetomatis MM55; Madurella mycetomatis, MM55, read-out: IC50 mean): < 4.60; IC90 (M. mycetomatis MM55; Madurella mycetomatis, MM55, read-out: IC90 1 um): > 25 µM; IC90 (M. mycetomatis MM55; Madurella mycetomatis, MM55, read-out: IC90 2 um): > 25 µM; IC90 (M. mycetomatis MM55; Madurella mycetomatis, MM55, read-out: IC90 3 um): > 25 µM; IC90 (M. mycetomatis MM55; Madurella mycetomatis, MM55, read-out: IC90 mean): > 25 µM
4.77 | 4.73 | > 25 | 4.79 | 23.5 | 4.79 | 23.7 | – | N=c1n(CCN2CCCCC2)c2ccccc2n1CC(O)COc1ccc(Cl)cc1Cl (stereo not shown) [MMV394033] | -10.3 | -2.82 | -5.36 | -0.0169 | Cidal | -4.41 | -2.83 | -0.144 | -3.08 | – | – | – | –
4.79 | 4.78 | 24.2 | 4.80 | 24.9 | 4.78 | 24.4 | 24.5 | Oc1c(C(Nc2ccccn2)c2ccccc2)ccc2cccnc12 (stereo not shown) [MMV565773] | 9.67 | 11.7 | 9.08 | 17.8 | Cidal | 15.4 | 6.46 | 30.1 | 8.24 | – | – | – | –
– | 4.62 | > 25 | 4.84 | 22.9 | < 4.60 | > 25 | – | CC(C)=CCC/C(C)=C/CNCCNC1C2CC3CC(C2)CC1C3 (stereo not shown) [MMV687273] | – | – | – | – | – | – | – | – | – | 1.12 | -2.04 | 4.77 | activity at 25 µM [1, 21]: 0.619%; activity at 100 µM [1, 22]: 6.61%; activity at 100 µM [1, 23]: 4.04%; Percent fungal survival at 100 µM [1, 24]: 15.3%; activity at 100 µM [1, 25]: 0.477%; Drug static or cidal (M. mycetomatis MM55; M. mycetomatis): Cidal
– | – | – | – | – | – | – | – | NCC(=O)Nc1ccc(-n2nc(C(F)(F)F)cc2-c2ccc3c(ccc4ccccc43)c2)cc1 [MMV1578560] | 29.4 | – | – | – | Static | – | -2.28 | 2.05 | – | – | – | – | activity at 25 µM ([1]; 25 uM, mean, read-out: Percentage survival at 25um, 25 uM mean): 9.74%; activity at 100 µM ([1]; mean, read-out: Percentage survival at 100um, 100 uM mean): 3%; activity at 100 µM ([1]; replicate (first column), read-out: Percentage survival at 100um, 100 uM A): -6.61%; activity at 100 µM ([1]; replicate (second column), read-out: Percentage survival at 100um, 100 uM A): 10.2%; activity at 100 µM ([1]; replicate (third column), read-out: Percentage survival at 100um, 100 uM A): 5.38%; IC90 (M. mycetomatis MM55; Madurella mycetomatis, MM55; read-out: IC90 mean): > 25 µM; pIC50 (M. mycetomatis MM55; Madurella mycetomatis, MM55; replicate 1; read-out: IC50 1): 4.76; IC90 (M. mycetomatis MM55; Madurella mycetomatis, MM55; replicate 1; read-out: IC90 1): > 25 µM; pIC50 (M. mycetomatis MM55; Madurella mycetomatis, MM55; replicate 2; read-out: IC50 2): 4.64; IC90 (M. mycetomatis MM55; Madurella mycetomatis, MM55; replicate 2; read-out: IC90 2): > 25 µM; pIC50 (M. mycetomatis MM55; Madurella mycetomatis, MM55; replicate 3; read-out: IC50 3): < 4.60; IC90 (M. mycetomatis MM55; Madurella mycetomatis, MM55; replicate 3; read-out: IC90 3): > 25 µM
– | 5.17 | 23.7 | 4.90 | 22.2 | 4.92 | 22.2 | – | O=S(=O)(Nc1cccc2cccnc12)c1ccccc1 [MMV1578890] | – | – | – | – | – | – | – | – | – | 2.42 | 2.33 | 0.789 | activity at 25 µM [1, 21]: 4.13%; activity at 100 µM [1, 22]: 29.9%; activity at 100 µM [1, 23]: 1.58%; Percent fungal survival at 100 µM [1, 24]: 81.7%; activity at 100 µM [1, 25]: 6.47%; Drug static or cidal (M. mycetomatis MM55; M. mycetomatis): Static; pIC50 (M. mycetomatis MM55; [26]): 4.98; IC90 (M. mycetomatis MM55; [27]): 22.7 µM
< 4.60 | < 4.60 | > 25 | < 4.60 | > 25 | < 4.60 | > 25 | > 25 | CC(C)Oc1ccc(-c2nc(-c3cccc4c3CC[C@@H]4NCCO)no2)cc1C#N [MMV1580492] | -14.6 | 2.78 | -1.25 | 12 | Cidal | -6.9 | -6.47 | 0.368 | -2.44 | – | – | – | –
< 4.60 | < 4.60 | > 25 | < 4.60 | > 25 | < 4.60 | > 25 | > 25 | FC(F)(F)Oc1ccc(Nc2ccc3cccc(Cl)c3n2)cc1 [MMV1581032] | -12.4 | 0.711 | -4.67 | 5.8 | Static | -0.326 | 8.52 | 2.93 | 1 | – | – | – | –
< 4.60 | < 4.60 | > 25 | < 4.60 | > 25 | < 4.60 | > 25 | > 25 | Cc1cc(O)c2c(c1)C(=O)c1c(I)c(O)c(I)c(O)c1C2=O [MMV1581545] | 10.6 | 12.4 | 10.8 | 12.3 | Cidal | 12.4 | 4.74 | 21.8 | 14.2 | – | – | – | –
4.82 | 4.88 | 23.1 | 4.80 | 23.6 | 4.78 | 24.2 | 23.6 | N#Cc1c(F)c(Cl)c(NCc2ccccc2)c(C#N)c1F [MMV1582496] | 2 | 2.09 | -0.676 | 5.72 | Static | 4.98 | -0.68 | 13.6 | 1.24 | – | – | – | –
– | 5.49 | 18 | 4.80 | 23.4 | 4.74 | 23.7 | – | O=[N+]([O-])c1ccc2c(CCc3c[nH]c4ccccc34)c[nH]c2c1 [MMV1593539] | – | – | – | – | – | – | – | – | – | 4.51 | 2.73 | 8.11 | activity at 25 µM [1, 21]: 2.7%; activity at 100 µM [1, 22]: 47.9%; activity at 100 µM [1, 23]: 0.0782%; Percent fungal survival at 100 µM [1, 24]: 136%; activity at 100 µM [1, 25]: 7.7%; Drug static or cidal (M. mycetomatis MM55; M. mycetomatis): Cidal; pIC50 (M. mycetomatis MM55; [26]): 4.91; IC90 (M. mycetomatis MM55; [27]): 21.7 µM
– | 5.37 | > 25 | 4.78 | 24 | 4.91 | 23.5 | – | Nc1nnnn1CCOc1c2[nH]c3ccc(Cl)cc3c2cc2c1[nH]c1ccc(Cl)cc12 [MMV1633966] | – | – | – | – | – | – | – | – | – | 3.05 | 1.67 | 3.75 | activity at 25 µM [1, 21]: 3.74%; activity at 100 µM [1, 22]: 3.34%; activity at 100 µM [1, 23]: 3.63%; Percent fungal survival at 100 µM [1, 24]: 1.28%; activity at 100 µM [1, 25]: 5.11%; Drug static or cidal (M. mycetomatis MM55; M. mycetomatis): Cidal; pIC50 (M. mycetomatis MM55; [26]): 4.96
